This is an account of results in patent publication US20040077659A1, “Method for treating ppar gamma mediated diseases or conditions” (priority 2003, published 2004).

In data set [1] the test system is Zucker Diabetic Fatty rats (ZDF fa/fa). The experiment in a line: Diabetic rat study, 28-day. Set-up: total serum protein: unit not given here. Format: in vivo. Particulars: for glycemic control / insulin: 28-day treatment, relative to vehicle treatment; for hematocrit (% RBC volume): vehicle 49±0.3; for hemodilution as indicated by hematocrit and total serum protein: day 28, versus vehicle group. As for the experimental part: The five PPAR pan agonist molecules prepared above were administered by oral gavage to genetically altered rodents that simulate the human disease of type 2 Diabetes Mellitus (Zucker Diabetic Fatty rats (ZDF fa/fa)). As a control a PPAR gamma agonist 2-[2-(methoxycarbonyl)anilino]-3-{4-[2-(5-methyl-2-phenyl-1,3-oxazol-4-yl)ethoxy]phenyl}propanoic acid was also tested. This PPAR gamma agonist can be prepared as described in Cobb, J. E., et al., N-(2-Benzoylphenyl)-L-tyrosine PPARg agonists. 3. Structure-activity relationship and optimization of the N-aryl substituent., J. Med. Chem. 1998, 41, 5055-5069. As an additional control, one group was treated with vehicle alone.
While all five hPPAR pan agonist molecules were evaluated in the above study for 7 days, one of these pan agonists, 2-{4-[({4-{[4-(4-methoxyphenyl)-1-piperazinyl]methyl}-2-[4-(triflouromethyl)phenyl]-1,3-thiazol-5-yl}methyl)sulfanyl]phenoxy}-2-methylpropanoic acid, and the PPAR gamma agonist were tested for 28 days. Animals were treated earlier than in the 7-day study, before the development of diabetes as measured by increased plasma glucose. Measurements were obtained at 7 day intervals and the PPAR pan agonist molecule (♦) was compared to vehicle control (*) and the PPAR gamma agonist (□). [formula] [formula] [formula]

The test system of another data set is Cynomolgus monkeys. Kind of data set: Primate study, edema and hemodilution. Particulars: oral once daily for 63 or 64 days, 1, 5 and 15 mg/kg. It is filed as in vivo, Cynomolgus monkey. As for the experimental part: In addition to the above rat studies, a primate study was conducted using the PPAR pan agonist 2-{4-[({4-{[4-(4-methoxyphenyl)-1-piperazinyl]methyl}-2-[4-(trifluoromethyl)phenyl]-1,3-thiazol-5-yl}methyl)sulfanyl]phenoxy}-2-methylpropanoic acid. In that study, male and female Cynomolgus monkeys were dosed orally once daily for 63 or 64 days with doses projected to provide greater than 3× the serum concentration needed to lower insulin resistance and serum glucose in diabetic patients. The animals were dosed at 0 mg/kg (control), 1 mg/kg, 5 mg/kg, and 15 mg/kg of the PPAR pan agonist. The animals were carefully observed for signs of edema and or hemodilution. Methods of evaluation during the in-life portion of the study included visual observation of swelling, particularly around the eyes and or genitals by a Board Certified pathologist, as well as evaluation of clinical hematology (red blood cell volume) and clinical chemistries (total serum protein) as evidence of hemodilution. At necropsy, careful examination for gross evidence of edema was based on palpation and careful examination of all issue. Special emphasis was given to the gross evaluation of subcutaneous tissue, all fat stores, lungs and all serous cavities.

Structures are written as SMILES.

In the case of `COC(=O)c1ccccc1NC(Cc1ccc(OCCc2nc(-c3ccccc3)oc2C)cc1)C(=O)O` (stereo not shown) [PPAR gamma agonist, 2-[2-(methoxycarbonyl)anilino]-3-{4-[2-(5-methyl-2-phenyl-1,3-oxazol-4-yl)ethoxy]phenyl}propanoic acid, reference compound], the “body weight increase from the start of dosing” value in data set [1] (28-day study) is 120%. Further, in data set [1], the glycemic control result is reported as “maintained glycemic control”; the insulin result is listed as “lowered insulin”; the “hemodilution as indicated by hematocrit and total serum protein” value is “evident”. In addition, the “hematocrit (% RBC volume)” value in data set [1] (after 28 days) was 43±1.0 % RBC volume.
Consider `COc1ccc(N2CCN(Cc3nc(-c4ccc(C(F)(F)F)cc4)sc3CSc3ccc(OC(C)(C)C(=O)O)cc3)CC2)cc1` [PPAR pan agonist, 2-{4-[({4-{[4-(4-Methoxyphenyl)-1-piperazinyl]methyl}-2-[4-(trifluoromethyl)phenyl]-1,3-thiazol-5-yl}methyl)sulfanyl]phenoxy}-2-methylpropanoic acid], for which the “body weight gain compared with vehicle treated animals” value in data set [1] (28-day study) is “not significantly different from the vehicle treated animals”. Moreover, in data set [1], the glycemic control result is recorded as “maintained glycemic control”; the insulin result is “lowered insulin”; the “hemodilution as indicated by hematocrit and total serum protein” value is on record as “not significantly different from the vehicle group”. Also, the total serum protein in data set [1] (after 28 days, vehicle 7.5±0.2) is recorded as 7.2±0.2. The “hematocrit (% RBC volume)” value in data set [1] (after 28 days) is on record as 48±0.9 % RBC volume. In the data set on Cynomolgus monkeys, the “edema in tissues examined histologically” value is given as “No evidence of edema” and the “signs of edema or hemodilution during in-life or necropsy portions” value was “no signs or suggestions of edema or hemodilution”.
